We go through one substance from patent publication US20050261194A1, “Use of thymulin-like peptides for making pain-relieving medicines” (priority 2001, published 2005).

What all share (type): in vivo, rat
The subject of assay [1] is IL-6. In words: IL-6 in hind paw skin after intraplantar ET (ELISA). As to the method:
(§1) These experiments required tissue sampling. The animals were sacrificed by anesthesia (sodium penthiobarbital, 50 mg/kg) and the skin of the hind paws is sampled either at 1 h (for the determination of the TNFα) or at 4 h (for the determination of IL-1β, IL-6 and NGF) after the endotoxin injection.
(§2) These tissue samples are weighed and then quick frozen and stored at −70° C. with a view of proceeding with the evaluation of IL-1β, TNFα, IL-6 and NGF.
(§3) In another series of experiments, the tissues are taken as described above using different groups of rats; the one group being pretreated with TAP 30 minutes before injection of ET and the other group having been injected with TAP only.
(§4) The tissues are homogenized in a phosphate buffer solution (PBS, pH=7.4), containing 0.4 M of NaCl, 0.05% of Tween-20®, 0.5% bovine serum albumin (BSA), 0.1 mM of phenylmethylsulfonyl fluoride, 0.1 mM of benzethonium chloride, 10 mM of EDTA and 20 KI/mL of aprotinin.
(§5) The mixture is then centrifuged at 1,200 g for 60 minutes at 4° C. The cytokines and the NFG contained in the supernatant were measured using ELIZA assays. […]
Background: ELISA stands for enzyme-linked immunosorbent assay.

Assay [2] has as its system rats. Nature of the assay: Hyperalgesia induced by intraplantar injection of capsaicin; PP, HP, PI tests. The procedure: Injection of capsaicin (10 μg in 50 μl of a 10% solution of Tween 20 in olive oil) produced hyperalgesia, whose peak was at three to six hours after injection and which disappeared at the end of 24 hours. Mechanical hyperalgesia was evaluated using the paw pressure test (PP), which consists in applying a constant pressure of 0.2 kg/cm on the dorsal part of the hind paw. The time lapsed between the application of the pressure and the nociceptive reflex of retraction of the paw was considered as the latency time (or threshold) of mechanical nociceptive. Thermal hyperalgesia was evaluated using the hot-plate (HP) test and the paw immersion (PI) test.
The HP and PI tests were done as in Example 1, the hot-plate having a temperature 52.5±0.3° C. and the hot water container at 48±0.3° C.
The PP and PI tests were done one after the other on the two hind paws observing an interval of five minutes between two consecutive tests.
The rats were sent to the laboratory one week prior to injection so that they would become accustomed to the environment and the tests were done on the rats over two or three days in order to obtain the baseline value for each test before any treatment (detailed description in Kanaan S. A. et al., 1996, Endotoxin-induced local inflammation and hyperalgesia in rats and mice: a new model for inflammatory pain, Pain, 66:373-379).
In the course of the experiments involving the injection […]. of capsaicin, the mean of the measurements done using each pain test (PP, HP or PI) was calculated for each group of rats prior to the injection of the capsaicin (baseline condition) and at different time intervals after injection (3, 6, 9 and 24 hours). TAP was injected (i.p.) thirty minutes before the capsaicin and the latency times of the different pain tests were measured at the same intervals of time after injection of the capsaicin.

Assay [3] concerns rats. Nature of the assay: Fever (rectal temperature) induced by intraperitoneal ET. The following applies: TAP 25 μg i.p. before ET 50 μg i.p.; rectal temperature 1, 3, 6 h; FIG. 4C. As to the method:
Protocol 2(b): Different groups of rats (n=5 in each group) were treated in the following fashion • either they received one intraperitoneal injection of 50 μg of ET, • or they were pretreated with the TAP peptide (25 μg, intraperitoneal injection), 30 minutes before an injection of endotoxin.
Rectal temperature was measured at 1 hour, 3 hours and 6 hours.
A control group received an intraperitoneal injection of TAP peptide (25 μg dissolved in 100 μl of saline solution).

The subject of assay [4] is IL-1β. Nature of the assay: IL-1β in hind paw skin after intraplantar ET (ELISA). The procedure: as §1, §2, §3, §4, §5
Assay [5] has as its system rats. In words: Systemic inflammatory hyperalgesia induced by intraperitoneal ET; PP and TF tests. The following applies: TAP 25 μg i.p. thirty minutes before ET 50 μg i.p. As to the method:
In the second model, the rats receive an intraperitoneal injection of endotoxin ([…] in 100 μl of physiological saline solution).
Protocol 2(a): One group of rats received one intraperitoneal injection of ET (50 μg), while the other group was pretreated with the protein analogue of thymuline (TAP) (25 μg, intraperitoneal injection), 30 minutes before the injection of ET.
The TF and PP tests were then done at 1 hour, 3 hours and 6 hours after the injection of ET.

The mark [6] stands for this setting: TAP 25 μg in control animals, no ET.

In the case of “Glu-Ala-lys-Ser-Gln-Gly-Gly-Ser-Asp (SQGGSD; N-terminal Glu-Ala-Lys; printed: Ser-Gln-Gly-Gly-Ser-Asp) [TAP]”, the “change of IL-6 concentration, TAP alone” value in assay [1] (setting [6]) is “did not induce significant change”. For the same substance, the IL-6 concentration in assay [1] (TAP pretreatment before intraplantar ET, ET alone 2831±285, saline 250.0±50.0, p<0.001) is recorded as 1158±197.0 pg/paw. In assay [2] (TAP 25 μg, no capsaicin, FIG. 8 controls), the “modification of latency times in the pain tests, TAP alone” value is “did not result in significant modification”. For the same substance, the “effect on capsaicin-induced hyperalgesia at the more elevated dose” value in assay [2] (TAP highest dose i.p. before capsaicin 10 μg i.pl.) was “complete prevention”. Further, the “effect on hyperalgesia induced by intraplantar capsaicin” value in assay [2] (TAP i.p. 1.5 or 25 μg/rat thirty minutes before capsaicin 10 μg, FIG. 8) is “dose-dependent attenuation”. Besides, in assay [3], the “effect on ET-induced increase of body temperature” value is on record as “nullified the process of increase of body temperature”. For the same substance, the “change of IL-1β concentration, TAP alone” value in assay [4] (setting [6]) is reported as “did not induce significant change”. Further, the IL-1β concentration in assay [4] (TAP pretreatment before intraplantar ET, ET alone 2850.6±255.4, saline 400.0±45.0, P<0.01) was determined as 1686.0±266.0 pg/paw. Besides, the “effect on mechanical hyperalgesia (PP test)” value in assay [5] (FIG. 4A) is on record as “abolished”. Further, the “effect on thermal hyperalgesia (TF test)” value in assay [5] (FIG. 4B) was “abolished”.
